From the NIST ThermoML archive (doi:10.1021/je200628n)
Numbers after ± are expanded uncertainties.

Experiment: activity coefficient (dimensionless); of the first substance listed, at infinite dilution; xn = mol fraction of the nth substance listed
Details: 101 kPa, Liquid, Chromatography, x1 = 0

Row | Structure (SMILES) | activity coefficient (338.2 K) | activity coefficient (348.15 K) | activity coefficient (353.22 K) | activity coefficient (348.25 K) | activity coefficient (353.15 K) | activity coefficient (358.25 K) | activity coefficient (363.21 K) | other results
1 | CCCCCCl [1-chloropentane] + NCCCCCCCCCCN | 2.94 ± 0.15 | 2.43 ± 0.12 | 2.23 ± 0.12 |  |  |  |  | 
2 | Cc1ccccc1 [toluene] + NCCCCCCCCCCN | 2.52 ± 0.13 | 2.23 ± 0.12 | 2.13 ± 0.11 |  |  |  |  | 
3 | CCCCCl [1-chlorobutane] + NCCCCCCCCN |  | 1.48 ± 0.071 |  |  |  |  |  | activity coefficient (328.15 K): 1.88 ± 0.095; activity coefficient (338.15 K): 1.65 ± 0.081; activity coefficient (343.15 K): 1.55 ± 0.075
4 | CCOCC [diethyl ether] + NCCCCCCCCCCN | 3.84 ± 0.2 | 3.69 ± 0.19 | 3.64 ± 0.19 |  |  |  |  | 
5 | CCCCO [butan-1-ol] + NCCCCCCCCCCN | 0.721 ± 0.035 | 0.774 ± 0.037 | 0.815 ± 0.038 |  |  |  |  | 
6 | CCCCCCCCCC [decane] + NCCCCCCCCCCCCN |  |  |  | 6.11 ± 0.31 | 5.89 ± 0.3 | 5.74 ± 0.29 | 5.6 ± 0.29 | 
7 | CCCCCCl [1-chloropentane] + NCCCCCCCCCCCCN |  |  |  | 3.08 ± 0.16 | 2.91 ± 0.15 | 2.73 ± 0.14 | 2.68 ± 0.14 | 
8 | c1ccccc1 [benzene] + NCCCCCCCCCCCCN |  |  |  | 2.08 ± 0.11 | 2.07 ± 0.11 | 2.06 ± 0.1 | 2.04 ± 0.1 | 
9 | CCCCO [butan-1-ol] + NCCCCCCCCCCCCN |  |  |  | 1.07 ± 0.048 | 1.1 ± 0.049 | 1.12 ± 0.051 | 1.16 ± 0.053 | 
10 | c1ccccc1 [benzene] + NCCCCCCCCCCN | 1.72 ± 0.086 | 1.61 ± 0.079 | 1.58 ± 0.077 |  |  |  |  | 
11 | ClC(Cl)(Cl)Cl [tetrachloromethane] + NCCCCCCCCCCCCN |  |  |  | 2.37 ± 0.12 | 2.28 ± 0.12 | 2.06 ± 0.11 | 1.98 ± 0.1 | 
12 | CCCCCl [1-chlorobutane] + NCCCCCCCCCCCCN |  |  |  | 2.71 ± 0.14 | 2.63 ± 0.14 | 2.56 ± 0.13 | 2.46 ± 0.13 | 
13 | C=CCCCCC [1-heptene] + NCCCCCCCCN |  | 2.93 ± 0.15 |  |  |  |  |  | activity coefficient (328.15 K): 3.59 ± 0.18; activity coefficient (338.15 K): 3.21 ± 0.17; activity coefficient (343.15 K): 3.03 ± 0.15
14 | CCCCCCCCCC [decane] + NCCCCCCCCN |  | 4.36 ± 0.22 |  |  |  |  |  | activity coefficient (328.15 K): 5.47 ± 0.28; activity coefficient (338.15 K): 4.82 ± 0.25; activity coefficient (343.15 K): 4.58 ± 0.23
15 | ClCCl [dichloromethane] + NCCCCCCCCCCCCN |  |  |  | 1.33 ± 0.062 | 1.23 ± 0.057 | 1.12 ± 0.05 | 1.05 ± 0.046 | 
16 | CCCCCCCl [1-chlorohexane] + NCCCCCCCCCCN | 3.46 ± 0.18 | 2.81 ± 0.14 | 2.54 ± 0.13 |  |  |  |  | 

Row | Structure (SMILES) | activity coefficient (338.2 K) | activity coefficient (348.15 K) | activity coefficient (353.22 K) | activity coefficient (348.25 K) | activity coefficient (353.15 K) | activity coefficient (358.25 K) | activity coefficient (363.21 K) | other results
17 | Cc1ccccc1 [toluene] + NCCCCCCCCN |  | 2.07 ± 0.11 |  |  |  |  |  | activity coefficient (328.15 K): 2.39 ± 0.12; activity coefficient (338.15 K): 2.17 ± 0.11; activity coefficient (343.15 K): 2.11 ± 0.11
18 | CCCCCCCCCC [decane] + NCCCCCCCCCCN | 5.59 ± 0.29 | 5.03 ± 0.26 | 4.78 ± 0.25 |  |  |  |  | 
19 | C=CCCC [1-pentene] + NCCCCCCCCN |  | 2.65 ± 0.14 |  |  |  |  |  | activity coefficient (328.15 K): 2.81 ± 0.14; activity coefficient (338.15 K): 2.7 ± 0.14; activity coefficient (343.15 K): 2.67 ± 0.14
20 | ClCCl [dichloromethane] + NCCCCCCCCCCN | 1.19 ± 0.054 | 1.09 ± 0.049 | 0.985 ± 0.043 |  |  |  |  | 
21 | CCO [ethanol] + NCCCCCCCCN |  | 0.435 ± 0.029 |  |  |  |  |  | activity coefficient (328.15 K): 0.384 ± 0.029; activity coefficient (338.15 K): 0.407 ± 0.029; activity coefficient (343.15 K): 0.42 ± 0.029
22 | CCCCCCCl [1-chlorohexane] + NCCCCCCCCN |  | 2.02 ± 0.1 |  |  |  |  |  | activity coefficient (328.15 K): 3.85 ± 0.2; activity coefficient (338.15 K): 2.73 ± 0.14; activity coefficient (343.15 K): 2.38 ± 0.12
23 | C=CCCC [1-pentene] + NCCCCCCCCCCCCN |  |  |  | 4.21 ± 0.22 | 4.04 ± 0.21 | 3.89 ± 0.2 | 3.75 ± 0.19 | 
24 | CCCCCl [1-chlorobutane] + NCCCCCCCCCCN | 2.38 ± 0.12 | 2.12 ± 0.11 | 2.01 ± 0.1 |  |  |  |  | 
25 | ClCCl [dichloromethane] + NCCCCCCCCN |  | 0.513 ± 0.031 |  |  |  |  |  | activity coefficient (328.15 K): 0.657 ± 0.034; activity coefficient (338.15 K): 0.552 ± 0.032; activity coefficient (343.15 K): 0.53 ± 0.031
26 | CCOCC [diethyl ether] + NCCCCCCCCN |  | 3.36 ± 0.17 |  |  |  |  |  | activity coefficient (328.15 K): 3.52 ± 0.18; activity coefficient (338.15 K): 3.4 ± 0.17; activity coefficient (343.15 K): 3.37 ± 0.17
27 | CCCCOC(C)=O [butyl ethanoate] + NCCCCCCCCCCN | 1.5 ± 0.073 | 1.17 ± 0.054 | 1.03 ± 0.046 |  |  |  |  | 
28 | C=CCCCCCCCC [1-decene] + NCCCCCCCCCCCCN |  |  |  | 5.05 ± 0.26 | 4.8 ± 0.25 | 4.47 ± 0.23 | 4.24 ± 0.22 | 
29 | C=CCCCCCCCC [1-decene] + NCCCCCCCCCCN | 4.34 ± 0.22 | 3.82 ± 0.2 | 3.57 ± 0.18 |  |  |  |  | 
30 | CCCCC [pentane] + NCCCCCCCCCCN |  |  |  |  |  |  |  | activity coefficient (3.9 K): 353 ± 18; activity coefficient (4.022 K): 348 ± 18; activity coefficient (4.331 K): 338 ± 18
31 | CCCCO [butan-1-ol] + NCCCCCCCCN |  | 0.692 ± 0.035 |  |  |  |  |  | activity coefficient (328.15 K): 0.669 ± 0.034; activity coefficient (338.15 K): 0.675 ± 0.034; activity coefficient (343.15 K): 0.681 ± 0.034
32 | ClC(Cl)(Cl)Cl [tetrachloromethane] + NCCCCCCCCCCN | 2.25 ± 0.12 | 2.05 ± 0.1 | 1.98 ± 0.1 |  |  |  |  | 

Further lines, with some results ahead:

Row | activity coefficient (338.2 K) | activity coefficient (348.15 K) | activity coefficient (353.22 K) | activity coefficient (348.25 K) | activity coefficient (353.15 K) | activity coefficient (358.25 K) | activity coefficient (363.21 K) | Structure (SMILES) | other results
33 | 4.09 ± 0.21 | 3.65 ± 0.19 | 3.45 ± 0.18 |  |  |  |  | C=CCCCCCC [oct-1-ene] + NCCCCCCCCCCN | 
34 |  |  |  | 4.76 ± 0.24 | 4.74 ± 0.24 | 4.68 ± 0.24 | 4.63 ± 0.24 | CCCCC [pentane] + NCCCCCCCCCCCCN | 
35 |  | 0.929 ± 0.042 |  |  |  |  |  | CCCOC(C)=O [propyl ethanoate] + NCCCCCCCCN | activity coefficient (328.15 K): 1.29 ± 0.06; activity coefficient (338.15 K): 1.08 ± 0.048; activity coefficient (343.15 K): 0.997 ± 0.044
36 |  | 1.72 ± 0.085 |  |  |  |  |  | CCc1ccccc1 [ethylbenzene] + NCCCCCCCCN | activity coefficient (328.15 K): 2.07 ± 0.11; activity coefficient (338.15 K): 1.86 ± 0.094; activity coefficient (343.15 K): 1.77 ± 0.089
37 |  |  |  | 2.5 ± 0.13 | 2.47 ± 0.13 | 2.42 ± 0.12 | 2.39 ± 0.12 | CCc1ccccc1 [ethylbenzene] + NCCCCCCCCCCCCN | 
38 |  |  |  | 0.774 ± 0.037 | 0.841 ± 0.039 | 0.919 ± 0.041 | 1.01 ± 0.044 | CO [methanol] + NCCCCCCCCCCCCN | 
39 | 5.05 ± 0.26 | 4.64 ± 0.24 | 4.46 ± 0.23 |  |  |  |  | CCCCCCC [heptane] + NCCCCCCCCCCN | 
40 |  |  |  | 1.36 ± 0.064 | 1.29 ± 0.06 | 1.22 ± 0.056 | 1.15 ± 0.052 | CCOC(C)=O [ethyl acetate] + NCCCCCCCCCCCCN | 
41 |  | 3.72 ± 0.19 |  |  |  |  |  | CCCCCC [hexane] + NCCCCCCCCN | activity coefficient (328.15 K): 4.03 ± 0.21; activity coefficient (338.15 K): 3.83 ± 0.2; activity coefficient (343.15 K): 3.75 ± 0.19
42 |  | 0.614 ± 0.033 |  |  |  |  |  | CCCO [propan-1-ol] + NCCCCCCCCN | activity coefficient (328.15 K): 0.567 ± 0.032; activity coefficient (338.15 K): 0.58 ± 0.032; activity coefficient (343.15 K): 0.593 ± 0.032
43 |  |  |  | 5.21 ± 0.27 | 5.13 ± 0.26 | 5.04 ± 0.26 | 4.97 ± 0.26 | CCCCCCC [heptane] + NCCCCCCCCCCCCN | 
44 |  | 2.77 ± 0.14 |  |  |  |  |  | C=CCCCC [hex-1-ene] + NCCCCCCCCN | activity coefficient (328.15 K): 3.18 ± 0.16; activity coefficient (338.15 K): 2.94 ± 0.15; activity coefficient (343.15 K): 2.85 ± 0.15
45 |  |  |  | 1.55 ± 0.076 | 1.45 ± 0.07 | 1.35 ± 0.064 | 1.26 ± 0.058 | CCCOC(C)=O [propyl ethanoate] + NCCCCCCCCCCCCN | 
46 |  |  |  | 4.28 ± 0.22 | 4.12 ± 0.21 | 3.93 ± 0.2 | 3.8 ± 0.2 | C=CCCCC [hex-1-ene] + NCCCCCCCCCCCCN | 
47 | 3.37 ± 0.17 | 3.06 ± 0.16 | 2.92 ± 0.15 |  |  |  |  | C=CCCCC [hex-1-ene] + NCCCCCCCCCCN | 
48 | 0.622 ± 0.033 | 0.731 ± 0.036 | 0.772 ± 0.037 |  |  |  |  | CCCO [propan-1-ol] + NCCCCCCCCCCN | 
49 |  | 0.855 ± 0.039 |  |  |  |  |  | CCOC(C)=O [ethyl acetate] + NCCCCCCCCN | activity coefficient (328.15 K): 1.08 ± 0.048; activity coefficient (338.15 K): 0.954 ± 0.042; activity coefficient (343.15 K): 0.902 ± 0.041
50 |  |  |  | 0.931 ± 0.042 | 0.975 ± 0.043 | 1.04 ± 0.046 | 1.09 ± 0.049 | CCCO [propan-1-ol] + NCCCCCCCCCCCCN | 
51 |  |  |  | 4.86 ± 0.25 | 4.8 ± 0.25 | 4.74 ± 0.24 | 4.69 ± 0.24 | CCCCCC [hexane] + NCCCCCCCCCCCCN | 
52 | 1.97 ± 0.1 | 1.78 ± 0.089 | 1.72 ± 0.085 |  |  |  |  | CCc1ccccc1 [ethylbenzene] + NCCCCCCCCCCN | 
53 |  |  |  | 5.54 ± 0.28 | 5.43 ± 0.28 | 5.27 ± 0.27 | 5.19 ± 0.27 | CCCCCCCC [octane] + NCCCCCCCCCCCCN | 
54 | 5.24 ± 0.27 | 4.79 ± 0.25 | 4.55 ± 0.23 |  |  |  |  | CCCCCCCC [octane] + NCCCCCCCCCCN | 
55 |  | 0.369 ± 0.029 |  |  |  |  |  | CO [methanol] + NCCCCCCCCN | activity coefficient (328.15 K): 0.284 ± 0.028; activity coefficient (338.15 K): 0.317 ± 0.028; activity coefficient (343.15 K): 0.34 ± 0.028
56 |  |  |  | 4.83 ± 0.25 | 4.53 ± 0.23 | 4.33 ± 0.22 | 4.11 ± 0.21 | C=CCCCCCC [oct-1-ene] + NCCCCCCCCCCCCN | 
57 | 1.16 ± 0.053 | 0.951 ± 0.042 | 0.868 ± 0.04 |  |  |  |  | CCOC(C)=O [ethyl acetate] + NCCCCCCCCCCN | 
